This is an account of results in patent publication US20220298213A1, “IN VIVO ENGINEERED CEREBLON PROTEIN” (Vividion Therapeutics, Inc., priority 2018, published 2022).

What all share (assay type): binding
The target in one assay is T1, CRBN Cys366 (Homo sapiens, UniProt Q96SW2).
T1 construct: endogenous in cells
Put plainly: Inhibition of iodoacetamide probe labeling of CRBN cysteines, cell lysate (Table 3A). Conditions: cell lysate, 1 h. On the procedure:
(§1) “X@Y” means that x % inhibition of iodoacetamide probe labeling was observed by treatment of cell lysate with the give compound in each row of the table for 1 h at a concentration of y micromolar. There was consistently high inhibition at C318 in addition to C287, which can be attributed to an allosteric inhibition.

The target in the next assay is T2, CRBN Cys287 (Homo sapiens, UniProt Q96SW2).
T2 construct: endogenous in cells
T2 sequence (Q96SW2 whole entry): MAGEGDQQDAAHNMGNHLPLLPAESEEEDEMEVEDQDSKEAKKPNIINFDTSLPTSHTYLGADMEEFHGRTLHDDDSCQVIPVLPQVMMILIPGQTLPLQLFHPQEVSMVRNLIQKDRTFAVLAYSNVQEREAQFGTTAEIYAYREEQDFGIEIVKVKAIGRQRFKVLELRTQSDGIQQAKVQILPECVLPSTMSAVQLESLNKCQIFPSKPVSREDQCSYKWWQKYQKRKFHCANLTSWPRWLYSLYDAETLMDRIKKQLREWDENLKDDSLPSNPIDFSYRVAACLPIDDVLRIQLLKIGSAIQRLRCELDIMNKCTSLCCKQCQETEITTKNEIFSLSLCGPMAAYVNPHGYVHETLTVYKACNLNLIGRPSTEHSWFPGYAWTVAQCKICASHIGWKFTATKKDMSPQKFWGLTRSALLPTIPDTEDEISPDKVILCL
The description is as above. Conditions: cell lysate, 1 h. On the procedure: as §1

The target of a further assay is T3, CRBN Cys219 (Homo sapiens, UniProt Q96SW2).
T3 construct: endogenous in cells
T3 sequence (Q96SW2 whole entry): as above
Described as above. Conditions: cell lysate, 1 h. Here is the method: as §1

A further assay has as its target T4, CRBN Cys343 (Homo sapiens, UniProt Q96SW2).
T4 construct: endogenous in cells
Described as above. Conditions: cell lysate, 1 h. On the procedure: as §1

Another assay deals with T5, CRBN Cys318 (Homo sapiens, UniProt Q96SW2).
T5 construct: endogenous in cells
T5 sequence (Q96SW2 whole entry): as above
The assay is described as above. To be noted: cell lysate, 1 h. Here is the method: as §1

A further assay has as its target T6, CRBN Cys205 (Homo sapiens, UniProt Q96SW2).
T6 construct: endogenous in cells
The assay is described as above. Conditions: 5 micromolar, cell lysate, 1 h. On the procedure: as §1

The target in the next assay is T7, CRBN Cys234 (Homo sapiens, UniProt Q96SW2).
T7 construct: endogenous in cells
T7 sequence (Q96SW2 whole entry): as above
Described as above. To be noted: cell lysate, 1 h. On the procedure:
as §1

Another assay deals with CRBN-287 (Homo sapiens, UniProt Q96SW2). Briefly: Probe labeling at native and denatured states after pretreatment (Table 2). Also noted: endogenous in cells; host or cells: cell lysate. On the procedure: (§2) To determine whether the co-inhibition of C287 and C318 was due to a direct or indirect mechanism, CRBN was pretreated with various Michael acceptor compounds and then tested for probe labeling in its native and denatured states.
CRBN-287, sequence (Q96SW2 whole entry): as above
(§3) In each the cell lysate was pretreated with compound, for native state data the probe was immediately added and for denatured data the probe was added after an additional step of denaturation (schematic shown in FIG. 4).

The target in the next assay is CRBN-318 (Homo sapiens, UniProt Q96SW2). The description is as above. Also noted: endogenous in cells; host or cells: cell lysate. Here is the method: as §2, §3
CRBN-318, sequence (Q96SW2 whole entry): as above
The target in a further assay is T8, BTK_481 (Homo sapiens, UniProt Q06187).
T8 construct: In each the cell lysate was pretreated with compound; endogenous in cells
T8 sequence (Q06187 whole entry): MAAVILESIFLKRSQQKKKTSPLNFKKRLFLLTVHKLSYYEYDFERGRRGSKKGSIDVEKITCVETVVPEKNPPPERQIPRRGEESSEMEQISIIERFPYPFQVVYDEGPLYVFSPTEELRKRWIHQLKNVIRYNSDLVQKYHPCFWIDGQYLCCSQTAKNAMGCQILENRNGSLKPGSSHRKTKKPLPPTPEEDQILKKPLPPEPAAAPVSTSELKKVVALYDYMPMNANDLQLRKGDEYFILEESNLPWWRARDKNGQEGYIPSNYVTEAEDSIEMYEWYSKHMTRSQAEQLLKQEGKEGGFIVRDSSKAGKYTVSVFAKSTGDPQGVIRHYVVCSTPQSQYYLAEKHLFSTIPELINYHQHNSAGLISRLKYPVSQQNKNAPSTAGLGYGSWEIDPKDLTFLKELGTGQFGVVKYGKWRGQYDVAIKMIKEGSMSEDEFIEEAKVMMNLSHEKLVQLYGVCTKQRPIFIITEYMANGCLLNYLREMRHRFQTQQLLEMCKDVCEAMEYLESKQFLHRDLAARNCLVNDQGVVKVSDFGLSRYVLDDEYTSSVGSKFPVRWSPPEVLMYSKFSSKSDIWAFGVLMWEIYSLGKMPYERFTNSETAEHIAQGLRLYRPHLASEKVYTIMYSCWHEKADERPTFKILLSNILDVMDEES
The description is as above. Conditions: screening concentration.

The target of another assay is T9, TEC_449 (Homo sapiens, UniProt P42680).
T9 construct: In each the cell lysate was pretreated with compound; endogenous in cells
T9 sequence (P42680 1-631): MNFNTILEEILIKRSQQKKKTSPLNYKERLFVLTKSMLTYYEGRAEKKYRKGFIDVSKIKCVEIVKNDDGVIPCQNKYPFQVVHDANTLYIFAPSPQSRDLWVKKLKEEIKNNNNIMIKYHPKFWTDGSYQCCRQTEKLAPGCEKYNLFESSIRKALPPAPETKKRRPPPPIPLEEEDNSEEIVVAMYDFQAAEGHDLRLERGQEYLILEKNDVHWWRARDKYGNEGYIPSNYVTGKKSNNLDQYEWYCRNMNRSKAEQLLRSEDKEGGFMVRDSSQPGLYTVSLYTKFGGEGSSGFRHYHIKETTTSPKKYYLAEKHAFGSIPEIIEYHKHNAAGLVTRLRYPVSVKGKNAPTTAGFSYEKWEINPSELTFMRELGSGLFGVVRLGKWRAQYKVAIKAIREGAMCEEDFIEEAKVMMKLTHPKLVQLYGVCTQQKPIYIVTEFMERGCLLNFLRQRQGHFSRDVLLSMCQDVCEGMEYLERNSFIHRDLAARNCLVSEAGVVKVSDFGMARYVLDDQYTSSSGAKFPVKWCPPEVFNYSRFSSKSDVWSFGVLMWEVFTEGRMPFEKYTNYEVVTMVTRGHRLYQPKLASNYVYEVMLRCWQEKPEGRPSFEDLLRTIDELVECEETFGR
The assay is described as above. Conditions: screening concentration.

Another assay deals with T10, CRBN_441 (Homo sapiens, UniProt Q96SW2).
T10 construct: endogenous in cells; host or cells: cell lysate
T10 sequence (Q96SW2 whole entry): as the sequence (Q96SW2 whole entry) above
The assay is described as above. Here is the method: as §2, §3

A further assay concerns the target T11, CRBN_343 (Homo sapiens, UniProt Q96SW2).
T11 construct: endogenous in cells; host or cells: cell lysate
The assay is described as above. On the procedure:
as §2, §3

For a further assay, the target named is T12, CRBN_322 (Homo sapiens, UniProt Q96SW2).
T12 construct: endogenous in cells; host or cells: cell lysate
T12 sequence (Q96SW2 whole entry): as above
Described as above. On the procedure:
as §2, §3

For the next assay, the target named is T13, CRBN_188 (Homo sapiens, UniProt Q96SW2).
T13 construct: endogenous in cells; host or cells: cell lysate
T13 sequence (Q96SW2 whole entry): as above
The assay is described as above. Here is the method:
as §2, §3

The target of the next assay is T14, CRBN_234 (Homo sapiens, UniProt Q96SW2).
T14 construct: endogenous in cells; host or cells: cell lysate
T14 sequence (Q96SW2 whole entry): as above
Described as above. On the procedure: as §2, §3

The next assay has as its target T15, CRBN_326 (Homo sapiens, UniProt Q96SW2).
T15 construct: endogenous in cells; host or cells: cell lysate
The description is as above. Here is the method: as §2, §3

The target of another assay is T16, CRBN_219 (Homo sapiens, UniProt Q96SW2).
T16 construct: endogenous in cells; host or cells: cell lysate
T16 sequence (Q96SW2 whole entry): as above
The description is as above. Here is the method: as §2, §3

Another assay addresses T17, CRBN_310 (Homo sapiens, UniProt Q96SW2).
T17 construct: endogenous in cells; host or cells: cell lysate
Described as above. On the procedure:
as §2, §3

The target in the next assay is T18, CRBN_205 (Homo sapiens, UniProt Q96SW2).
T18 construct: endogenous in cells; host or cells: cell lysate
T18 sequence (Q96SW2 whole entry): as above
The description is as above. On the procedure: as §2, §3

Each structure is given as a SMILES string.

T1 sequence (Q96SW2 whole entry): as above
T17 sequence (Q96SW2 whole entry): as above
T4 sequence (Q96SW2 whole entry): as above
T11 sequence (Q96SW2 whole entry): as above
T6 sequence (Q96SW2 whole entry): as above
T15 sequence (Q96SW2 whole entry): as above

Usually inhibition stands for the change of the read-out against control, counted positive when it falls. For `CC(/C=C(\C#N)C(=O)N1CCC(c2ccccc2)C1)c1ccccc1` (stereo not shown) [Example A7], the inhibition at 0.5 µM against CRBN Cys366 (0.5 micromolar) was 3%; on CRBN Cys318 (0.5 micromolar), 39%; against CRBN Cys234 (0.5 micromolar), 12%. Further, the inhibition at 5 µM against CRBN Cys366 (5 micromolar) is 3%; against CRBN Cys219 (5 micromolar) it was -3%; at CRBN Cys343 (5 micromolar), 8%; against CRBN Cys318 (5 micromolar) it was 67%; against CRBN Cys205 it was -42%; against CRBN Cys234 (5 micromolar) it was 19%. The inhibition at 50 µM at CRBN Cys366 (50 micromolar) came out at 26%; against CRBN Cys219 (50 micromolar), 32%; on CRBN Cys343 (50 micromolar) it was 51%; on CRBN Cys318 (50 micromolar), 69%; against CRBN Cys234 (50 micromolar), 32%. At CRBN Cys287 (2.0 micromolar, read-out: % inhibition of iodoacetamide probe labeling, Cys287), the inhibition at 2 µM was found to be 71%. In addition, the inhibition at 7.8 µM against CRBN Cys287 (7.8 micromolar) came to 72%. Besides, the inhibition at 31.2 µM at CRBN Cys287 (31.2 micromolar, read-out: % inhibition of iodoacetamide probe labeling, Cys287) is 95%. The inhibition at 125 µM at CRBN Cys287 (125 micromolar, read-out: % inhibition of iodoacetamide probe labeling, Cys287) is 94%. The inhibition at 500 µM on CRBN Cys287 (500 micromolar, read-out: % inhibition of iodoacetamide probe labeling, Cys287) came to 92%.

Consider `C=CC(=O)N(c1ccccc1)c1ccc(Br)cc1` [reference compound], for which, at CRBN-287, the “inhibition of probe labeling, CRBN_287, Den.” value amounted to 59%. Moreover, at CRBN-318, the “inhibition of probe labeling, CRBN_318, Den.” value came to 53%. For the same molecule, the “inhibition of probe labeling, BTK_481, Den.” value on BTK_481 (denatured state) is listed as 98%. Further, at BTK_481 (native state), the “inhibition of probe labeling, BTK_481, Nat.” value was found to be 97%. Moreover, the “inhibition of probe labeling, TEC_449, Den.” value on TEC_449 (denatured state) stood at 95%. For the same molecule, the “inhibition of probe labeling, TEC_449, Nat.” value on TEC_449 (native state) stood at 96%. For the same molecule, the “inhibition of probe labeling, CRBN_441, Den.” value at CRBN_441 was −26%. The “inhibition of probe labeling, CRBN_343, Den.” value on CRBN_343 is listed as −10%. Further, on CRBN_322, the “inhibition of probe labeling, CRBN_322, Den.” value worked out at 29% and the “inhibition of probe labeling, CRBN_322, Nat.” value came to 29%. Also, at CRBN_188, the “inhibition of probe labeling, CRBN_188, Den.” value is on record as −6% and the “inhibition of probe labeling, CRBN_188, Nat.” value is −36%. For the same molecule, on CRBN_234, the “inhibition of probe labeling, CRBN_234, Den.” value was found to be 45% and the “inhibition of probe labeling, CRBN_234, Nat.” value is −4%. Also, the “inhibition of probe labeling, CRBN_326, Den.” value on CRBN_326 is −8%. For the same molecule, at CRBN_219, the “inhibition of probe labeling, CRBN_219, Den.” value is 57% and the “inhibition of probe labeling, CRBN_219, Nat.” value came out at 40%. Besides, at CRBN_310, the “inhibition of probe labeling, CRBN_310, Den.” value was found to be 50% and the “inhibition of probe labeling, CRBN_310, Nat.” value is listed as 2%. On CRBN_205, the “inhibition of probe labeling, CRBN_205, Den.” value was determined as 13% and the “inhibition of probe labeling, CRBN_205, Nat.” value is −23%.
